Source: patent publication US20140113964A1, “METHOD OF PREVENTING AND TREATING ALLERGIC AIRWAY DISEASES VIA INTRANASAL GABEXATE MESILATE” (priority 2012, published 2014)
Where a SMILES comes first, the peptide text is derived from it. [ ]: non-standard residue; d: D form. The star is where a group is joined. Sta = CC(C)C[C@H](N)[C@@H](O)CC(=O)O; Isovaleryl = CC(C)CC(=O)*

Columns and labels:
[1] = system: protease activity of CraA; test: azocasein assay of the protease activity of CraA with protease inhibitors; assay type: biochemical, American cockroach; conditions: azocasein substrate, 37° C., 30 mins, absorbance at 440 nm; FIG. 1
Protocol: In brief, azocasein was used as a substrate to measure the protease activity of CraA. Twenty μL of CraA was added into 80 μL azocasein solution (0.5% (w/v), lysed in 100 mM phosphate buffer) and incubated in 37° C. water bath for 30 mins. Afterwards, 20 μL of 10% trichloroacetic acid was added to stop the reaction. Further, the mixture was centrifuged with 6000 g for 10 mins. Consequently, 50 μL of supernatant was mixed with 50 μL of NaOH (0.2N), and the absorbance was measure at 440 nm. Moreover, various protease inhibitors were applied to inhibit the protease activity of CraA, for instance, PMSF (serine protease), aprotinin (serine protease), pepstatin (aspartic acid protease), E-64 (cysteine protease) and EDTA (metalloprotease), so as to confirm the serine protease activity of CraA.
With reference to FIG. 1 for a schematic view of inhibition of protease activity of CraA in accordance with an embodiment of the present invention, the protease activity inhibition was shown after treatment of different kinds of […].

Beas2B cells [2] = test: cell viability of Beas2B cells, trypan blue staining and counting; assay type: cell-based, Human
Protocol: With reference to FIG. 5 for a schematic view of cell viability of Beas2B cells treated with gabexate mesilate (GM) in accordance with an embodiment of the present invention, 3×10^5 Beas2B cells were seeded in a 3.5-cm dish with subsequently starvation for 16 hrs. After treating the cells with gabexate mesilate of various concentrations for 24 hrs, the cells were stained with trypan blue and counted the numbers of total cells, dead cells and survived cells so as to convert the numbers into a viability of the cells.
Referring to FIG. 5, the IC50 of the cells to gabexate mesilate is 600 μg/mL, that is, the cell viability with respect to gabexate mesilate at concentration of 600 μg/mL is 50%. […] Accordingly, the pharmaceutical effective amount of the composition comprising gabexate mesilate may be between 1-600 μg/mL, preferably between 10-300 μg/mL.

Beas2B cells [3] = test: CraA-induced dissociation of Beas2B cells, bright field microscope; assay type: cell-based, Human; conditions: 36, 75, 150 or 300 μg/mL gabexate mesilate for 30 mins, then 5 μg/mL CraA; FIG. 6
Protocol: With reference to FIG. 2 is a schematic view of Beas2B cells treated with various doses of CraA in accordance with an embodiment of the present invention, 3×10^5 Beas2B cells were seeded in a 6-well plate and treated with 0, 5, 10, 20, 30 and 40 μg/mL of CraA, respectively. Afterwards, the cells were observed by the bright field microscope.

[4] = system: IL-8, MCP-1, GM-CSF and CCL20 genes; test: RT-PCR of chemokine genes (IL-8, MCP-1, GM-CSF, CCL20) in Beas2B cells treated with CraA; assay type: cell-based, Human; conditions: pre-treatment 30 mins, then 5 μg/mL CraA, increasing doses; FIG. 7
Protocol: Referring to FIG. 4, the mRNA levels of various cytokines in response to treatment of CraA was measured by RT-PCR. To be brief, 3×10^5 Beas2B cells were seeded in a 6-well plate and treated with 5 μg/mL of CraA for 1, 2, 3, 4, 5, 16 and 24 hrs, respectively. After the treatment, the cells were harvested by TRIzol (Invitrogen), and RNA of the cells was extracted. The extracted RNA was reverse-transcribed into cDNA by SuperScript polymerase (Invitrogen) according to the manufacturer's instruction. Moreover, IL-8, MCP-1, GM-CSF and CCL20 genes were amplified by RT-PCR and analyzed by 2% agarose gel. The expression levels of the above mentioned genes were normalized with the expression of β-actin.

IL-8 and MCP-1 proteins = test: IL-8 and MCP-1 protein levels in Beas2B cells treated with CraA; assay type: cell-based, Human; conditions: pre-treatment 30 mins, then 5 μg/mL CraA, time courses; FIG. 8
Protocol: With reference to FIGS. 6-8 for a schematic view of protection effects of gabexate mesilate (GM) on Beas2B cells treated with CraA, a schematic view of chemokines detected by RT-PCR in Beas2B cells treated with CraA and gabexate mesilate and a quantification result of IL-8 and MCP-1 proteins in Beas2B cells treated with CraA and gabexate mesilate in accordance with an embodiment of the present invention, 3×10^5 Beas2B cells were seeded in a 6-well plate and subsequently treated with gabexate mesilate for 30 mins. Afterwards, the cells were further treated with 5 μg/mL of CraA. Consequently, the cells were either observed by bright field microscope and analyzed the gene expression and the protein level of the cytokines, such as IL-8, MCP-1, GM-CSF and CCL20, as mentioned above.

murine asthma model = conditions: intra-peritoneal injection; cited from earlier work

## CC(C)C[C@H](NC(=O)[C@H]1O[C@@H]1C(=O)O)C(=O)NCCCCN=C(N)N [E-64]
[1]
  inhibition of the protease activity of CraA: not significantly inhibited

## O=C(O)CN(CCN(CC(=O)O)CC(=O)O)CC(=O)O [EDTA]
[1]
  inhibition of the protease activity of CraA: not significantly inhibited

## O=S(=O)(F)Cc1ccccc1 [PMSF]
[1]
  inhibition of the protease activity of CraA: obviously inhibited

## CCOC(=O)c1ccc(OC(=O)CCCCCN=C(N)N)cc1.CS(=O)(=O)O [gabexate mesilate]
Beas2B cells [2]; 1200 μg/mL, 24 hrs
  survived cells: no survived cells
Beas2B cells [2]; Beas2B cells, 24 hrs treatment, trypan blue, FIG. 5
  IC50 of the cells to gabexate mesilate (cell viability): 600 µg/mL
Beas2B cells [3]
  dissociation of Beas2B cells treated with CraA: reverse the dissociation of the cells
[4]
  expression of IL-8, MCP-1, GM-CSF and CCL20 genes induced by CraA: obviously decreases the gene expression induced by CraA
IL-8 and MCP-1 proteins
  protein levels of IL-8 and MCP-1: significantly decreased
Murine asthma model
  allergen-induced airway inflammation and eosinophilia: attenuates allergen-induced airway inflammation and eosinophilia

## CC(C)CC(=O)N[C@H](C(=O)N[C@H](C(=O)N[C@@H](CC(C)C)[C@@H](O)CC(=O)N[C@@H](C)C(=O)N[C@@H](CC(C)C)[C@@H](O)CC(=O)O)C(C)C)C(C)C [pepstatin] (Isovaleryl-VV[Sta]A[Sta]-OH)
[1]
  inhibition of the protease activity of CraA: not significantly inhibited

## aprotinin
[1]
  inhibition of the protease activity of CraA: obviously inhibited
